Consider seven cell lines from the supplement of paper PMC10307832.

Holding throughout (experiment): relative viability (nuclei count vs DMSO), 5 days (fraction); higher = more cells survive
Compound in assay [1]: CC[C@@H](C)CNCC(=O)N1CCC2=C([C@@H]1COC3=CC=CC(=C3)C)C=CS2 [RU-SKI 43] + O=C(c1cc(Cc2n[nH]c(=O)c3ccccc23)ccc1F)N1CCN(C(=O)C2CC2)CC1 [Olaparib] (partner 8 µM)
In short, it runs like this: (§1)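 The day after seeding in 1536-well plates, lung cancer cell lines were treated by pin tool with a single drug, or with a fixed anchor-drug dose together with five library-drug doses (not always all listed) in √10 steps. After 5 days, a combined fix-and-stain solution (final 0.05% Triton X-100, 1% formaldehyde, 1 ug/ml Hoechst) was added. Nuclei counted on 4× images gave relative viability as treated counts over vehicle counts, reported as the median of duplicate plates.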

Compound in assay [2]: CC[C@@H](C)CNCC(=O)N1CCC2=C([C@@H]1COC3=CC=CC(=C3)C)C=CS2 [RU-SKI 43] + Cc1nc(NC(=O)N2CCC[C@H]2C(N)=O)sc1-c1ccnc(C(C)(C)C(F)(F)F)c1 [Alpelisib] (partner 2 µM)
In short, it runs like this: as §1

Compound in assay [3]: CC[C@@H](C)CNCC(=O)N1CCC2=C([C@@H]1COC3=CC=CC(=C3)C)C=CS2 [RU-SKI 43] + C[C@]1(O)C[C@@H](c2nc(-c3ccc4ccc(-c5ccccc5)nc4c3)c3c(N)nccn32)C1 [Linsitinib] (partner 1 µM)
In short, it runs like this: as §1

Compound in assay [4]: CC[C@@H](C)CNCC(=O)N1CCC2=C([C@@H]1COC3=CC=CC(=C3)C)C=CS2 [RU-SKI 43] + C[C@@H](Oc1cc(-c2cnn(C3CCNCC3)c2)cnc1N)c1c(Cl)ccc(F)c1Cl [Crizotinib] (partner 1 µM)
The gist of the method:
as §1

Take LU99A: the relative viability in assay [1] (first compound 0.1 µM) was 0.261; in assay [1] (first compound 0.3162 µM) it was 0.276; in assay [1] (first compound 1 µM) it was 0.285; in assay [1] (first compound 3.162 µM), 0.271; in assay [1] (first compound 10 µM) it was 0.262; in assay [2] (first compound 0.1 µM) it was 0.526. The relative viability worked out at 0.558 in assay [2] (first compound 0.3162 µM); 0.5 in assay [2] (first compound 1 µM); 0.578 in assay [2] (first compound 3.162 µM); 0.456 in assay [2] (first compound 10 µM); 0.484 in assay [3] (first compound 0.1 µM); 0.596 in assay [3] (first compound 0.3162 µM). For the same cell line, the relative viability in assay [3] (first compound 1 µM) came to 0.58; in assay [3] (first compound 3.162 µM), 0.597; in assay [3] (first compound 10 µM), 0.505; in assay [4] (first compound 0.1 µM), 0.542; in assay [4] (first compound 0.3162 µM), 0.565; in assay [4] (first compound 1 µM), 0.595. The relative viability stood at 0.6 in assay [4] (first compound 3.162 µM) and 0.469 in assay [4] (first compound 10 µM).

Turning to LXF-289, the relative viability in assay [1] (first compound 0.1 µM) amounted to 1.09; in assay [1] (first compound 0.3162 µM), 1.09; in assay [1] (first compound 1 µM), 1.17; in assay [1] (first compound 3.162 µM), 1.16; in assay [1] (first compound 10 µM), 0.948; in assay [2] (first compound 0.1 µM), 1.02. Moreover, the relative viability in assay [2] (first compound 0.3162 µM) was 0.96; in assay [2] (first compound 1 µM), 1.1; in assay [2] (first compound 3.162 µM), 1.13; in assay [2] (first compound 10 µM), 0.963; in assay [3] (first compound 0.1 µM), 0.982; in assay [3] (first compound 0.3162 µM) it was 1.01. The relative viability in assay [3] (first compound 1 µM) came out at 0.96; in assay [3] (first compound 3.162 µM) it was 0.983; in assay [3] (first compound 10 µM), 0.956; in assay [4] (first compound 0.1 µM) it was 0.815; in assay [4] (first compound 0.3162 µM) it was 0.784; in assay [4] (first compound 1 µM), 0.806. The values for the relative viability in assay [4] (first compound 3.162 µM) and in assay [4] (first compound 10 µM) were 0.83 and 0.736, respectively.

On to NCI-H23, for which the relative viability was 0.28 in assay [1] (first compound 0.1 µM); 0.263 in assay [1] (first compound 0.3162 µM); 0.292 in assay [1] (first compound 1 µM); 0.326 in assay [1] (first compound 3.162 µM); 0.279 in assay [1] (first compound 10 µM); 0.648 in assay [2] (first compound 0.1 µM). The relative viability in assay [2] (first compound 0.3162 µM) stood at 0.796; in assay [2] (first compound 1 µM) it was 0.81; in assay [2] (first compound 3.162 µM), 0.697; in assay [2] (first compound 10 µM) it was 0.628; in assay [3] (first compound 0.1 µM), 0.646; in assay [3] (first compound 0.3162 µM), 0.541. Also, the relative viability worked out at 0.652 in assay [3] (first compound 1 µM); 0.724 in assay [3] (first compound 3.162 µM); 0.572 in assay [3] (first compound 10 µM); 0.472 in assay [4] (first compound 0.1 µM); 0.42 in assay [4] (first compound 0.3162 µM); 0.451 in assay [4] (first compound 1 µM). The relative viability was found to be 0.598 in assay [4] (first compound 3.162 µM) and 0.39 in assay [4] (first compound 10 µM).

Consider NCI-H322M, for which the relative viability in assay [1] (first compound 0.1 µM) came out at 0.703; in assay [1] (first compound 0.3162 µM), 0.817; in assay [1] (first compound 1 µM) it was 0.76; in assay [1] (first compound 3.162 µM) it was 0.797; in assay [1] (first compound 10 µM), 0.703; in assay [2] (first compound 0.1 µM) it was 0.85. Moreover, the relative viability is 0.852 in assay [2] (first compound 0.3162 µM); 0.833 in assay [2] (first compound 1 µM); 0.891 in assay [2] (first compound 3.162 µM); 0.794 in assay [2] (first compound 10 µM); 0.832 in assay [3] (first compound 0.1 µM); 0.915 in assay [3] (first compound 0.3162 µM). The relative viability came to 0.967 in assay [3] (first compound 1 µM); 1.02 in assay [3] (first compound 3.162 µM); 0.893 in assay [3] (first compound 10 µM); 1.19 in assay [4] (first compound 0.1 µM); 1.04 in assay [4] (first compound 0.3162 µM); 0.941 in assay [4] (first compound 1 µM). Moreover, the results for the relative viability in assay [4] (first compound 3.162 µM) and in assay [4] (first compound 10 µM) were 0.979 and 0.733, respectively.

Take NCI-H358: the relative viability in assay [1] (first compound 0.1 µM) came out at 0.548; in assay [1] (first compound 0.3162 µM), 0.936; in assay [1] (first compound 1 µM), 0.756; in assay [1] (first compound 3.162 µM) it was 0.636; in assay [1] (first compound 10 µM) it was 0.545; in assay [2] (first compound 0.1 µM), 0.795. For the same cell line, the relative viability is 0.894 in assay [2] (first compound 0.3162 µM); 0.781 in assay [2] (first compound 1 µM); 0.634 in assay [2] (first compound 3.162 µM); 0.858 in assay [2] (first compound 10 µM); 0.706 in assay [3] (first compound 0.1 µM); 0.781 in assay [3] (first compound 0.3162 µM). In addition, the relative viability in assay [3] (first compound 1 µM) came to 0.819; in assay [3] (first compound 3.162 µM), 0.933; in assay [3] (first compound 10 µM) it was 0.687; in assay [4] (first compound 0.1 µM), 0.604; in assay [4] (first compound 0.3162 µM), 0.484; in assay [4] (first compound 1 µM), 0.512. Moreover, the relative viability in assay [4] (first compound 3.162 µM) was 0.578; in assay [4] (first compound 10 µM), 0.35.

Take NCI-H441: the relative viability in assay [1] (first compound 0.1 µM) came to 0.709; in assay [1] (first compound 0.3162 µM), 0.576; in assay [1] (first compound 1 µM), 0.627; in assay [1] (first compound 3.162 µM), 0.736; in assay [1] (first compound 10 µM) it was 0.542; in assay [2] (first compound 0.1 µM), 0.87. For the same cell line, the relative viability in assay [2] (first compound 0.3162 µM) was determined as 0.907; in assay [2] (first compound 1 µM) it was 0.573; in assay [2] (first compound 3.162 µM), 0.68; in assay [2] (first compound 10 µM) it was 0.946; in assay [3] (first compound 0.1 µM), 0.538; in assay [3] (first compound 0.3162 µM), 0.462. Besides, the relative viability worked out at 0.654 in assay [3] (first compound 1 µM); 0.533 in assay [3] (first compound 3.162 µM); 0.473 in assay [3] (first compound 10 µM); 0.662 in assay [4] (first compound 0.1 µM); 0.655 in assay [4] (first compound 0.3162 µM); 0.637 in assay [4] (first compound 1 µM). Also, the relative viability in assay [4] (first compound 3.162 µM) is 0.686; in assay [4] (first compound 10 µM), 0.641.

As to NCI-H460, the relative viability in assay [1] (first compound 0.1 µM) was found to be 0.389; in assay [1] (first compound 0.3162 µM), 0.702; in assay [1] (first compound 1 µM), 0.47; in assay [1] (first compound 3.162 µM), 0.49; in assay [1] (first compound 10 µM) it was 0.334; in assay [2] (first compound 0.1 µM) it was 0.44. Moreover, the relative viability in assay [2] (first compound 0.3162 µM) came to 0.657; in assay [2] (first compound 1 µM), 0.6; in assay [2] (first compound 3.162 µM), 0.5; in assay [2] (first compound 10 µM), 0.36; in assay [3] (first compound 0.1 µM), 0.789; in assay [3] (first compound 0.3162 µM), 1.84. The relative viability in assay [3] (first compound 1 µM) was determined as 1.08; in assay [3] (first compound 3.162 µM), 1.02; in assay [3] (first compound 10 µM), 0.695; in assay [4] (first compound 0.1 µM), 0.869; in assay [4] (first compound 0.3162 µM), 1.2; in assay [4] (first compound 1 µM), 0.91. Further, the relative viability in assay [4] (first compound 3.162 µM) was 1.01; in assay [4] (first compound 10 µM), 0.551.
